Laboratory results from paper PMC11623267, “Inhibitors of malaria parasite cyclic nucleotide phosphodiesterases block asexual blood-stage development and mosquito transmission” (Science Advances, 2024).
Like-named read-outs stand apart in the source and are kept apart here.

What was measured:
[1] = tested on: P. falciparum (clone 3D7); assay: Parasite reduction ratio (PRR) assay; assay type: cell-based, Plasmodium falciparum; conditions: for Lag phase / Log PRR / PCT99.9% (hours taken to kill 99.9% of the parasites): 10× EC50, 3D7; for Slope: 10× EC50, 3D7 killing profile; for Killing profile: 10× EC50, faster than pyrimethamine, slower than chloroquine
Method: The in vitro killing profile of compounds was determined by monitoring the ability of parasites to recover following treatment with a compound of interest using a previously reported approach ([50]), which allowed calculation of the PRR ([51]). […] To quantify the number of viable parasites following treatment, four independent sets of threefold serial dilutions were performed on each sample, which were assayed for the presence or absence of parasites after 28 days using the LDH assay, and the number of viable parasites was determined by the number of wells showing growth. PRR and PCT99.9% were calculated as previously reported ([50]).

[2] = tested on: P. falciparum clinical isolates from Porto Velho, Brazil; assay: Ex vivo schizont maturation assay, Brazilian clinical isolates; assay type: cell-based, Plasmodium falciparum; conditions: Plasmodium falciparum
Method: Only monoinfected patients with P. falciparum with parasitemia between 2000 and 80,000 parasites/μl and with at least 70% of ring-stage parasites were recruited. Patients who had used an antimalarial in the previous month and/or presented with symptoms of severe malaria were excluded from the study. The study cohort comprised 24 patients living in this highly endemic area. A peripheral venous blood sample (5 ml) was collected from each individual by venipuncture in heparin-containing tubes and immediately used in the ex vivo drug susceptibility assay using preprepared plates containing diluted antimalarial compounds. […] Last, 20 μl of each dilution was transferred into the ex vivo assay plate and diluted 10-fold into the final assay medium containing parasites. For the infected blood preparation, 5 ml of whole blood was centrifuged at 800g for 10 min, and the plasma and buffy coat were removed. […] Control assays on a 3D7 laboratory isolate were performed with medium supplemented with human serum (20%). The iRBC (180 μl per well) were distributed in the predosed drug plate. […] Control wells containing drug-free iRBCs were cultured with complete medium. The parasite-drug incubation was terminated when 40% of the ring stages reached the schizont stage (at least three distinct nuclei per parasite) in the drug-free control wells. Thick blood films were then made from each well, dried, stained with 5% Giemsa solution for 30 min, and examined microscopically. The number of schizonts per 200 asexual-stage parasites was determined for each drug concentration and then normalized by comparing with the schizont number in the drug-free control wells [considered as 100% ([64])]. The half-maximal drug inhibitory response (EC50) was estimated by curve fitting using software from the OriginLab Corporation, Northampton, MA, USA and comparing with parasite growth in the drug-free controls.

[3] = tested on: P. falciparum Dd2-B2 lines selected under drug pressure; assay: 72-hour flow cytometry EC50 assay, lines selected under drug pressure; assay type: cell-based, Plasmodium falciparum; conditions: for Mean fold change in EC50: selected lines vs Dd2-B2 parental line, ±SD; for EC50 shift, line selected with the same NPD compound, Well 1 / EC50 shift, line selected with the same NPD compound, Well 2 / EC50 shift, line selected with the same NPD compound, Well 3 / EC50 shift, line selected with the same NPD compound, Well 4: vs Dd2-B2
Method: Three examples of an additional compound series developed independently [NPD-2958, NPD-3518 ([31]), and NPD-3738; fig.
(§1) Stocks of SAL-0010003 (5-benzyl), SAL-0010355 (5-aryl), and SAL-0010419 (2-alkyl) were made at 10 and 1 mM in DMSO. Aliquots in use were stored at −20°C, and long-term storage was at −80°C. All in vitro studies were done such that the final DMSO concentration was <0.5%. P. falciparum ABS parasites were cultured at 3% hematocrit in human O+ RBCs in RPMI 1640 medium, supplemented with 25 mM Hepes, 50 mg L-hypoxanthine, 2 mM L-glutamine, 0.225% sodium bicarbonate, 0.5% (w/v) AlbuMAX II (Invitrogen) and gentamycin (10 μg/ml), in modular incubator chambers (Billups-Rothenberg) at 5% O2, 5% CO2, and 90% N2 at 37°C. Dd2-B2 (obtained from T. Wellems, National Institute of Allergy and Infectious Diseases, National Institutes of Health) is a genetically homogenous line that was cloned from Dd2 by limiting dilution. To define the EC50 and EC90 values of ABS parasites, Dd2-B2 ring-stage cultures at 0.2% parasitemia and 1% hematocrit were exposed for 72 hours to a range of 10 drug concentrations that were twofold serially diluted in duplicates along with drug-free controls. Parasite survival was assessed by flow cytometry on an iQue flow cytometer (Sartorius) using SYBR Green and MitoTracker Deep Red FM (Life Technologies) as nuclear stain and vital dyes, respectively. After determination of the EC50 and EC90 values for the three compounds with the P. falciparum Dd2-B2 clone, one single-step selection was set up using 2 × 10^5 parasites in each well of a 96-well plate at a starting concentration of 3× EC90. Parasites were cleared from the culture rapidly, and cultures were screened three times weekly by flow cytometry and counted as positive for recrudescence when the overall parasitemia reached 0.3% and the parasites were visible on a blood smear. DNA was extracted from recrudescent lines using a QIAGEN QIAamp Blood Mini Kit, and libraries were prepared with the Illumina DNA Prep kit for whole-genome sequencing on the Illumina MiSeq using a V3 2 × 300–base pair flow cell.

[4] = tested on: P. falciparum Dd2-B2; assay: 72-hour flow cytometry EC50 assay, Dd2-B2 parental line; assay type: cell-based, Plasmodium falciparum; conditions: read-out: EC50 Dd2-B2 parental line
Method: as §1

[5] = tested on: P. falciparum stage V gametocytes (female gamete formation); assay: Female gamete formation inhibition assay; assay type: cell-based, Plasmodium falciparum; conditions: 2 μM, 48 hours
Method: Mature gametocytes (>95% stage V) were treated with compounds (2 μM) for 48 hours before stimulating female gamete formation. To evaluate compound dose response, gametocytes were treated similarly at set concentrations representing a fourfold serial dilution. Female gamete activation was induced by both a temperature drop and the addition of 100 μM XA. Monoclonal anti-Pfs25 antibody (BEI Resources, catalog number MRA-28; 1:1000 dilution) conjugated to fluorescein isothiocyanate was used to detect female gametes. Image acquisition was performed using a Zeiss Axio Lab.A1 epifluorescence microscope with a 100/1.4 numerical aperture oil immersion objective and a Zeiss Axiocam 202 mono digital camera. Using a 100× objective, 30 images were taken per sample and analyzed manually. The number, size, roundness, and intensity of fluorescence of activated female gametocytes were evaluated. Compound IC50 values were determined with nonlinear curve fitting (GraphPad Prism 6), normalized to maximum and minimum inhibition.

[6] = tested on: P. falciparum stage V gametocytes (male gamete formation); assay: Exflagellation (male gamete formation) inhibition assay; assay type: cell-based, Plasmodium falciparum; conditions: 2 μM, 48 hours
Method: The exflagellation inhibition assay was performed by capturing movement of exflagellation centers over time by video microscopy [adapted from a reported protocol ([52])]. For this carry-over format, mature stage V gametocytes were treated with 2 μM of each compound for 48 hours before induction of exflagellation in the presence of compound. To evaluate compound dose response, gametocytes were treated similarly at a set of concentrations representing a fourfold serial dilution. Mature gametocyte cultures (>95% stage V; 500 μl) were centrifuged at 3500 rpm for 30 s, and the pellet was resuspended in 30 μl of ookinete medium [RPMI 1640 medium containing L-glutamine (Sigma-Aldrich, R6504), gentamycin (0.024 mg/ml; HyClone, SV30080.01), 202 μM hypoxanthine (Sigma-Aldrich, H9636), 25 mM Hepes (Sigma-Aldrich, H4034), 0.2% glucose (Sigma-Aldrich, G6152), and 0.5% (w/v) AlbuMAX II (Invitrogen, Paisley, UK), supplemented with 100 μM XA and 20% human serum]. The activated culture (10 μl) was introduced into a Neubauer chamber and placed on the microscope platform to settle homogenously. Time was noted as time zero (T0), and the chamber was incubated at room temperature. Movement was recorded by video microscopy using a Carl Zeiss NT 6V/10W Stab microscope, fitted with a MicroCapture camera at 10× magnification, and then quantified by a semiautomated method, a modification of the method described previously ([53]). A series of 15 videos of 8 to 10 s each were captured at random locations between 15 and 22.5 min after incubation. Each video was analyzed using Icy bioimage analysis software to quantify the number of exflagellating centers. Compound IC50 values were determined with nonlinear curve fitting (GraphPad Prism 6), normalized to maximum and minimum inhibition.

[7] = tested on: P. falciparum stage IV/V gametocytes; assay: LDH-based gametocyte viability assay; assay type: cell-based, Plasmodium falciparum; conditions: stage IV to V gametocytes
Method: The pLDH assay was performed on late (>95% stage IV/V) gametocytes. Compound dilutions were placed in triplicate in 96-well plates in a final volume of 100 μl per well. DHA and MMV048 were used as positive drug controls. The gametocyte cultures (100 μl per well) were added to the 96-well plates to achieve a final gametocytemia and hematocrit of 2 and 1%, respectively, in a total incubation volume of 200 μl. Plates were incubated at 37°C for 72 hours, followed by the replacement of spent medium with drug-free culture medium (75% medium change) ([54], [55]). Plates were then incubated for a further 72 hours before assessing viability by measuring pLDH activity. Gametocyte viability was determined spectrophotometrically by measuring the activity of pLDH, according to a modified version of a published protocol ([56]). Briefly, 100 μl of Malstat reagent [0.21% (v/v) Triton X-100, 222 mM L-(+)-lactic acid, 54.5 mM tris, 0.166 mM APAD (Sigma-Aldrich, A5251), adjusted to pH 9 with 1 M NaOH] was transferred into a clean 96-well plate. A fixed volume of 20 μl of parasite suspension per well was added to the Malstat plate, followed by the addition of 25 μl of PES/NBT (0.239 mM phenazine ethosulfate and 1.96 mM nitro blue tetrazolium chloride). Absorbance was measured with a Multiskan Ascent 354 multiplate scanner (Thermo LabSystems, Finland) at 620 nm.

[8] = tested on: HepG2 cells; assay: HepG2 cytotoxicity; assay type: cell-based
Excerpt: Table 1. Key activity data for the three main chemical subseries against ABS parasites, parasite fractions, and HepG2 cells. ND, not determined; ×/÷ is the geometric mean with geometric SD. | column: HepG2 EC50 (nM) (selectivity index)

[9] = read-out: EC50, line selected with the same NPD compound, Well 1
[10] = read-out: EC50, line selected with the same NPD compound, Well 2
[11] = read-out: EC50, line selected with the same NPD compound, Well 3
[12] = read-out: EC50, line selected with the same NPD compound, Well 4

C[C@H]1[C@H](OC(=O)CCC(=O)O)O[C@@H]2O[C@@]3(C)CC[C@H]4[C@H](C)CC[C@@H]1[C@@]24OO3 [Artesunate, reference compound]
Lag phase [1]: 0 h | Log PRR [1]: >8 | PCT99.9% (hours taken to kill 99.9% of the parasites) [1]: <24 h | EC50 ([2]; read-out: EC50 range, clinical isolates): 0.1 to 9 nM | EC50 ([2]; read-out: Median EC50, clinical isolates): 0.6 nM

O=C1C(O)=C([C@H]2CC[C@H](c3ccc(Cl)cc3)CC2)C(=O)c2ccccc21 [Atovaquone, reference compound]
Lag phase [1]: 48 h | Log PRR [1]: 2.26 | PCT99.9% (hours taken to kill 99.9% of the parasites) [1]: 73.0 h | Slope [1]: −0.0470 ± 0.0042

CC(C)c1n[nH]c2c(=O)[nH]c(Cc3ccccc3Cl)nc12 [NPD-2958]
EC50 [3, 9]: 2570 nM | EC50 [3, 10]: 3370 nM | EC50 [3, 11]: 2470 nM | EC50 [3, 12]: 2440 nM | Mean fold change in EC50 [3]: 8.5 ± 1.4 fold | EC50 shift, line selected with the same NPD compound, Well 1 [3]: 8.1 fold | EC50 shift, line selected with the same NPD compound, Well 2 [3]: 10.5 fold | EC50 shift, line selected with the same NPD compound, Well 3 [3]: 7.7 fold | EC50 shift, line selected with the same NPD compound, Well 4 [3]: 7.6 fold | EC50 [4]: 320 nM

CC(C)c1n[nH]c2c(=O)[nH]c(C3CCCCC3)nc12 [NPD-3518]
EC50 [3, 9]: 2630 nM | EC50 [3, 10]: 2290 nM | EC50 [3, 11]: 2530 nM | EC50 [3, 12]: 2510 nM | Mean fold change in EC50 [3]: 12.2 ± 0.7 fold | EC50 shift, line selected with the same NPD compound, Well 1 [3]: 12.9 fold | EC50 shift, line selected with the same NPD compound, Well 2 [3]: 11.2 fold | EC50 shift, line selected with the same NPD compound, Well 3 [3]: 12.4 fold | EC50 shift, line selected with the same NPD compound, Well 4 [3]: 12.4 fold | EC50 [4]: 203 nM

CC(C)c1n[nH]c2c(=O)[nH]c(C3CCOc4ccc(F)cc43)nc12 (centres unmarked) [SAL-0010007]
% inhibition of female gamete formation at 2 μM [5]: 50.6 ± 1.9% | % inhibition of exflagellation at 2 μM [6]: 100 ± 0% | % inhibition gametocyte viability at 15 μM [7]: 100 ± 0%

CCc1c2nc(-c3cc(C(=O)NC)cnc3OCC(C)C)[nH]c(=O)c2nn1CCOC [SAL-0010031]
Lag phase [1]: 0 h | Log PRR [1]: 2.78 | PCT99.9% (hours taken to kill 99.9% of the parasites) [1]: 51.2 h | Slope [1]: −0.0579 ± 0.0058 | Killing profile [1]: fast/moderate killing profile | EC50 [8]: > 25000 nM

CCCCOc1ncc(Br)cc1-c1nc2c(C(C)C)n[nH]c2c(=O)[nH]1 [SAL-0010203]
% inhibition of female gamete formation at 2 μM [5]: 44.8 ± 1.7% | % inhibition of exflagellation at 2 μM [6]: 76.7 ± 13.6% | % inhibition gametocyte viability at 15 μM [7]: 0%

CC(C)COc1ccc(S(=O)(=O)N(C)C)cc1-c1nc2c(C(C)C)n[nH]c2c(=O)[nH]1 [SAL-0010243]
% inhibition of female gamete formation at 2 μM [5]: 80.5 ± 0.9% | % inhibition of exflagellation at 2 μM [6]: 95.4 ± 12.3% | % inhibition gametocyte viability at 15 μM [7]: 100 ± 0%

CC(C)COc1ccc(S(=O)(=O)N(C)C)cc1-c1nc2c(C3CCC3)n[nH]c2c(=O)[nH]1 [SAL-0010283]
% inhibition of female gamete formation at 2 μM [5]: 44.8 ± 2.5% | % inhibition of exflagellation at 2 μM [6]: 72.1 ± 26.0% | % inhibition gametocyte viability at 15 μM [7]: 100 ± 0%

CC(C)COc1ccc(S(=O)(=O)N(C)C)cc1-c1nc2c(C(C)(C)C)n[nH]c2c(=O)[nH]1 [SAL-0010284]
% inhibition of female gamete formation at 2 μM [5]: 58.6 ± 2.1% | % inhibition of exflagellation at 2 μM [6]: 60.5 ± 18.0% | % inhibition gametocyte viability at 15 μM [7]: 100 ± 0%

CNC(=O)c1cnc(OCC(C)C)c(-c2nc3c(C(C)C)n[nH]c3c(=O)[nH]2)c1 [SAL-0010301]
Lag phase [1]: 0 h | Log PRR [1]: 2.55 | PCT99.9% (hours taken to kill 99.9% of the parasites) [1]: 55.1 h | Slope [1]: −0.0532 ± 0.0042 | Killing profile [1]: fast/moderate killing profile | EC50 [8]: > 25000 nM
